Measured values from US20160227783A1, “AGROCHEMICAL FORMULATION AID FOR MICRONUTRIENT UPTAKE IN PLANTS, PLANT HEALTH BENEFITS AND HERBICIDE PERFORMANCE” (Adjuvants Plus USA, INC., priority 2015, published 2016).
Marks after values point to notes of the source that are not given here.

Experiments:
[1] = test system: Velvetleaf; assay: Influence of water conditioners on the control of velvetleaf 21 DAT in the greenhouse; settings: velvetleaf 21 DAT greenhouse
[2] = test system: glyphosate resistant canola Nexera 1012; assay: Canola field trial: flowering, yield components, oil, protein and seed yield; type: in vivo
Method: (§1) A trial was conducted to evaluate the effect of early and or late application of glyphosate with Composition 2 on yield of glyphosate resistant canola. The RR canola was Nexera 1012. The trial was conducted on a silt loam soil with 40-47% sand, 30-50% silt and 10-23% clay, 1.4-2.9% organic matter, and pH of 6.4-8.2. The plot was planted to field pea and then hard red spring wheat the previous two years. Treatments were arranged in a randomized complete block design with four (4) replications each while the control (no-Composition 2) was replicated only twice. Plots were seeded with Nexera 1012 at seeding depth of about 1.2 to 2.5 cm, 10° C. soil temperature and plant population of approximately 110-115 seeds m2. Plants were fertilized with 87-31-9-22 N—P—K—S pounds per acre via spreading urea and potash and putting phosphorus (Alpine and 11-52-0) and sulfur through the drill. In-crop application of glyphosate at a rate of 0.45 kg ha-1 (180 g/ac) with Composition 2 at 1 L/ac was applied at 3-4 leaf stage (Early application), 6 leaf stage (Normal application), after 10 leaf stage (late) and at both 3-4 leaf and after 10 leaf stages (Early/late application). The control treatments were sprayed with glyphosate alone. Each treatment was replicated four (4) times except the control treatment which had only two (2) replications.
(§2) Plant leaf tissues were collected at one and two weeks after spraying within each treatment to determine the mineral compositions. At physiological maturity with 70% of the seeds on the main raceme turned black, plants were swathed and allowed to cure for three weeks before being combined. Prior to swathing, fifty randomly selected plants were used for seed yield and yield components analysis. Data on number of fruits/plant, percent seed oil and seed protein were collected and analysed. An area of […] of swath for each plot was combined and used for yield (bu/ac) determination. Seed yield (bu/ac) from combine was adjusted to 8% seed moisture content. Variables response to treatments were compared by analysis of variance (ANOVA) by using SPSS statistical software and mean values were subjected to ANOVA and significant means at F<0.05 were separated by the Duncan's multiple range test.

[3] = test system: glyphosate resistant canola Nexera 1012; assay: Canola leaf tissue mineral composition after glyphosate with or without Composition 2; type: in vivo; settings: for % K / % N / % P / % S / Fe ppm / Mn ppm / Zn ppm: Control: glyphosate 0.45 kg/ha alone
Method: as §1, §2

[4] = canola, Control: glyphosate 0.45 kg/ha alone
[5] = canola leaf tissue one week after application, Control: glyphosate alone
[6] = canola leaf tissue one week after spraying
[7] = canola leaf tissue two weeks after spraying

O=C(O)COc1ccc(Cl)cc1Cl [2,4-D Acid, 2,4-D]
2,4-D Acid (% control) ([1]; 2,4-D Acid (Rugged) 0.1 kg a.e/ha, herbicide alone): 31 g %

CNC.O=C(O)COc1ccc(Cl)cc1Cl [2,4-D DMA, 2,4-D Dimethylamine]
2,4-D DMA (% control) ([1]; 2,4-D DMA 0.1 kg a.e./ha, herbicide alone): 29 g %

N.N.O=S(=O)(O)O [AMS, Diammonium sulfate]
2,4-D Acid (% control) ([1]; 2,4-D Acid (Rugged) 0.1 kg a.e/ha +2% AMS): 73 ab %
2,4-D DMA (% control) ([1]; 2,4-D DMA 0.1 kg a.e./ha +2% AMS): 58 def %

COc1c(Cl)ccc(Cl)c1C(=O)O.NCCOCCO [Dicamba DGA, dicamba diglycolamine]
Dicamba DGA (% control) ([1]; Dicamba DGA (Clarity) 0.034 kg a.e/ha, herbicide alone): 36 g %

O=C(O)CNCP(=O)(O)O [glyphosate]
oil content ([2]; canola seed, Control: glyphosate 0.45 kg/ha alone): 37.7%
percent protein ([2]; canola seed, Control: glyphosate alone): lowest value
Number of fruits per plant [2, 4]: 78.5
Seed yield [2, 4]: 40.9 bu/ac
thousand seed weight [2, 4]: 3.1 g
Percent green counts ([2]; control (no-Composition 2) compared to Early, Normal and Early/Late treatments): higher
Flowering ([2]; no-Composition 2 (glyphosate alone) plots compared to Composition 2 treated plots): delayed
Fe reduction [3, 5]: 22.7%
Mn concentration drop from the initial concentration [3, 5]: 13.4%
Zn concentration drop from the initial concentration [3, 5]: 14.5%
% K [3, 6]: 4.1^a %
% N [3, 6]: 3.7^a %
% P [3, 6]: 0.3^a %
% S [3, 6]: 1.0^a %
Fe ppm [3, 6]: 85.1^a ppm
Mn ppm [3, 6]: 76.4^a ppm
Zn ppm [3, 6]: 20.7^a ppm
% K [3, 7]: 4.3^a %
% N [3, 7]: 4.6^a %
% P [3, 7]: 0.5^a %
% S [3, 7]: 1.3^a %
Fe ppm [3, 7]: 105^a ppm
Mn ppm [3, 7]: 83.2^a ppm
Zn ppm [3, 7]: 22.6^a ppm
